Assay results reported in article PMC9640981, “Plant vernalization proteins contain unusual PHD superdomains without histone H3 binding activity” (The Journal of Biological Chemistry, 2022).

Legend:
Pd VIN3_123-326 = assay: ITC binding to Pd VIN3 PHD superdomain; set-up: species or system Phoenix dactylifera; settings: 25 °C, Pd VIN3_123-326 with 60-mer DNA
Protocol: VIN3_123-326 from P. dactilyfera was amplified by PCR from synthetic codon optimized genes (gBlocks, Integrated DNA Technologies) and subcloned into pEC-LIC-His-3C (kindly provided by Jurg Muller) containing a hexahistidine tag and a 3C protease cleavage site at the N terminus. VIN3_123-326 was expressed and purified as described previously for VIN3_150-208. In this case, after 3C cleavage overnight, the sample was loaded on a HiLoad 26/600 Superdex 200 pg column (GE Healthcare) in 25 mM Tris pH 8, 150 mM NaCl, and 1 mM DTT.
ITC was carried out at 25 °C with an iTC 200 Microcalorimeter (GE Healthcare) in 25 mM Tris pH 8, 150 mM NaCl, and 1 mM DTT. Titrations consisted of 19 consecutive 2 μl injections of 0.25 to 1 mM peptide solution (following a preinjection of 0.5 μl) into 50 μM protein (VIN3PHD, VIN3_123-326, VIN3_116-307, OBE1_193-372, or pVP13 VIN3_130-299) at time intervals of 120 s. ITC data were analyzed using MicroCal PEAQ-IT Analysis Software (Malvern Sciences).

[1] = system: ^15N-labeled Pd VIN3_123-326; assay: NMR (BEST-TROSY) interaction of negatively charged polymers with Pd VIN3 PHD superdomain; type: binding, Phoenix dactylifera
Protocol: For NMR spectroscopy, A. thaliana VIN3_150-208 and P. dactilyfera VIN3_123-326 were expressed in M9 minimal medium supplemented with 0.4% glucose, antibiotics, trace elements, 25 ml overnight culture, and 2 g of ^15N-H4Cl per liter of expression culture. Cultures were grown and processed essentially as described before. NMR samples containing 50 μM ^15N-labeled VIN3_150-208 or VIN3_123-326 were prepared in aqueous buffer (25 mM Tris pH 8, 150 mM NaCl, and 1 mM DTT). The 50 μM ^15N-labeled VIN3_150-208 or VIN3_123-326 was incubated with 0.5 mM histone H3 peptides resuspended in 25 mM Tris pH 8, 150 mM NaCl, and 1 mM DTT for >30 min before measurement. Spectra were recorded on a Bruker Avance-III spectrometer operating at 600 MHz ^1H frequency and equipped with a 5 mm inverse detection cryogenic probe. BEST-TROSY shift correlation experiments ([45]) were acquired with 256 × 1024 points in t1 and t2, respectively. Spectra were processed in TopSpin version 3.2 (Bruker), with linear prediction in t1, giving a digital resolution of 2.2 and 8.2 Hz/point in the processed data.
Generation of nucleic acid probes for NMR
FLC DNA was used as a template for the design of a dsDNA 60-mer probe, generated by annealing the sequence (5′ […] 3′) and its complementary oligonucleotide for 2 min at 95 °C. […]

With “60-mer ssDNA: FLC 60-mer predicted to lack secondary structure, 5′ GAAGAAAAAGTAGATAGGCACAAAAAATAGAAAGAAATAAAGCGAGAAAAGGAAAAAAAA 3′ (DNA, backbone and methylation of C not given here)” the “affinity / binding of nucleic acid (in words)” value (Pd VIN3_123-326; ITC titrations, pH 8) was “weak binding in the low millimolar range”, the Kd (Pd VIN3_123-326; ITC, 25 mM Tris pH 8, 150 mM NaCl, 1 mM DTT, representative profile) was about 5 mM and the “perturbation of BEST-TROSY spectrum (in words)” value ([1]; 50 μM ^15N-labeled VIN3_123-326, 4 μM 60-mer dsDNA or 63-mer RNA (Fig. 6A, B), ssDNA comparison E. F.-E., unpublished) was “less effective in eliciting spectral changes than dsDNA”.
With heparin the “perturbation of BEST-TROSY spectrum, heparin (in words)” value ([1]; 50 μM ^15N-labeled VIN3_123-326, 4 μM heparin) was “same set of perturbations”.
